Measured values as given in article PMC11173382, “In Vitro Investigations into the Potential Drug Interactions of Pseudoginsenoside DQ Mediated by Cytochrome P450 and Human Drug Transporters” (Molecules, 2024).
One block for each compound: values may come before it.

Columns and labels:
[1] = target: T1, hOCT2 (Homo sapiens, UniProt O15244); assay: Substrates uptake assay, S2-OCT2 cells (14C-TEA); format: in vitro ADME; conditions: inhibitor 600 μM
T1 construct: host or cells: S2-OCT2
T1 sequence (O15244 1-555): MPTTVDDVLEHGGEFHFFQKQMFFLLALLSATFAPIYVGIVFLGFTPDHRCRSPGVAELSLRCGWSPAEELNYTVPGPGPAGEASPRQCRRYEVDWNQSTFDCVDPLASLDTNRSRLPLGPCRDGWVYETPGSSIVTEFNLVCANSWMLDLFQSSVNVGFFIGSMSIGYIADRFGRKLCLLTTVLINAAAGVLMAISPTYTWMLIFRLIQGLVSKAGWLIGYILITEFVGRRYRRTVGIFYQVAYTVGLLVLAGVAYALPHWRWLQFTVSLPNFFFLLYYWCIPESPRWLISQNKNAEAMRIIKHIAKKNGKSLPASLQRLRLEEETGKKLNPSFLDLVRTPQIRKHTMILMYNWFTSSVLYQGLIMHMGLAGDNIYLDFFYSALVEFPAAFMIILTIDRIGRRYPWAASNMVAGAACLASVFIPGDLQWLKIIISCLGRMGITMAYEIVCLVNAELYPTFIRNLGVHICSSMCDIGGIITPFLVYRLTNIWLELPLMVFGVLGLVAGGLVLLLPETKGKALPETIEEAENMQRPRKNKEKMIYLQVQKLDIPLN
Description: (§1) Drug transporters mediate the cellular uptake and efflux of their substrates. Therefore, cell lines overexpressing a drug transporter can be utilized to investigate inhibitors of the transporter by assessing changes in substrate uptake. For each drug transporter, we selected a well-characterized inhibitor as the positive control. Radiolabeled substrates were used to indicate the decrease in transport efficiency when the drug transporters were inhibited by PDQ or the control inhibitors.
(§2) The concentrations of the control drugs and the substrates were stated in the assay details. Working solutions of the control inhibitors, the radiolabeled substrates, and each dose of PDQ were prepared at 200 times (200×) more concentrated solutions with DMSO for further dilution.
(§3) Transporter-overexpressed cell lines. Human organic anion transporter-overexpressed cell lines MDCKII-OAT1 and S2-OAT3, human organic anion transport polypeptide-overexpressed cell lines HEK293A-OATP1B1 and HEK293A-OATP1B3, human organic cation transporter 2-overexpressed cell line S2-OCT2, and human multi-drug resistance protein MDR1 (or P-gp)-overexpressed cell line MDCKII-MDR1 were gifts from Japan Fuji Biomedical Co., Ltd. (Fuji, Shizuoka Prefecture, Japan). Breast cancer resistance protein-overexpressed vesicles (sf9-BCRP vesicle) were purchased from GenoMembrane Co., Ltd. (Yokohama, Kanagawa, Japan).
(§4) Substrates uptake assay. In this assay, we studied the inhibition of PDQ against transporters OAT1, OAT3, OCT2, OATP1B1 and OATP1B3 with MDCKII-OAT1, S2-OAT3, S2-OCT2, HEK293A-OATP1B1and HEK293A-OATP1B3 cells, respectively. The radiolabeled substrates for OAT1, OAT3, OATP1B1, OATP1B3 and OCT2 were […], respectively (Table 5). Probenecid ([…]) was the positive control inhibitor of OAT1 and OAT3, while rifampicin ([…]) served as the control drug of OATP1B1 and OATP1B3. For OCT2, we used […] cimetidine to compare with the inhibitory effect of PDQ. Two times (2×) more concentrated working solutions of the drugs and the substrate were prepared with Dulbecco’s phosphate-buffered saline (DPBS, Gibco, Grand Island, NY, USA.). Then, an equal volume of 2× drug solution and 2× radiolabeled substrate solution were mixed as the working mix. All reagents were pre-warmed to 37 °C.
(§5) The cells were digested with 0.05% trypsin/EDTA. The density of the single-cell suspension was adjusted to 2.0 × 10^5 cells/mL for S2 cells and to 1.5 × 10^5 cells/mL for MDCK II and HEK293A cells. The cell suspension was then added to the reservoirs of the 24-well plate for culture until full confluency. The medium in the wells was removed, and the wells were washed with DPBS. Then, the plate was incubated for 10 min with pre-warmed DPBS in the wells. After removing DPBS, […] of working mix was added to each well to initiate the substrate uptake process. The reaction time was 5 min for S2-OCT2 cells, while the other four types of cells were incubated with the reaction mix for 2 min. Cold DPBS was used to terminate the substrate transportation. To each well, […] NaOH ([…]) was added to lyse the cells. Then, […] cell lysate was transferred to the counting vials, and 3 mL scintillation cocktail (Aquasol-2, PerkinElmer, Waltham, MA, USA) was added. […] Each sample was replicated three times (N = 3).
(§6) In = [100 × (U − U0)/(Uc − U0)]%(3)
(§7) The results were expressed as mean ± standard deviation (SD) and analyzed with GraphPad Prism 8.0 software (CA, USA). The IC50 of PDQ was curve-fitted with the FORECAST function. Statistical significance was calculated using a two-tailed test, and a p value < 0.05 was considered as significant.

[2] = tested on: CYP2C9; set-up: method as in PMID 30078466; conditions: cited from earlier work
[3] = target: T2, hOAT3 (Homo sapiens, UniProt Q8TCC7); assay: Substrates uptake assay, S2-OAT3 cells (3H-ES); format: in vitro ADME; conditions: inhibitor 100 μM
T2 sequence (Q8TCC7 1-542): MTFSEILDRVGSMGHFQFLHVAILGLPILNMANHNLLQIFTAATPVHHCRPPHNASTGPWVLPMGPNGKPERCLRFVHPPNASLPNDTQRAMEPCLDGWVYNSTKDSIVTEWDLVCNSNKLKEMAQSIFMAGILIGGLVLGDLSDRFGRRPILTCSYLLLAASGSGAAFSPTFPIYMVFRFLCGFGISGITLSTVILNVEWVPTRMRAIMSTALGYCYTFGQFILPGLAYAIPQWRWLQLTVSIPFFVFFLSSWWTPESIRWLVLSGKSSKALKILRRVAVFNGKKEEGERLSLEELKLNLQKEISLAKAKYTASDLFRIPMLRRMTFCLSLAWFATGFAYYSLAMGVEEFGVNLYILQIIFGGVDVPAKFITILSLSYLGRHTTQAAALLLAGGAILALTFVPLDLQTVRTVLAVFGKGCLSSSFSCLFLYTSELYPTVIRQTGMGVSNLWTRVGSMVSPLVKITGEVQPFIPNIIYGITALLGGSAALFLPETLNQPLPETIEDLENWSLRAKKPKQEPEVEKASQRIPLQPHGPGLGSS
Description: as §1, §2, §3, §4, §5, §6, §7

[4] = target: T3, hOATP1B3 (Homo sapiens, UniProt Q9NPD5); assay: Substrates uptake assay, HEK293A-OATP1B3 cells (3H-EG); format: in vitro ADME; conditions: inhibitor 60 μM
T3 sequence (Q9NPD5 1-702): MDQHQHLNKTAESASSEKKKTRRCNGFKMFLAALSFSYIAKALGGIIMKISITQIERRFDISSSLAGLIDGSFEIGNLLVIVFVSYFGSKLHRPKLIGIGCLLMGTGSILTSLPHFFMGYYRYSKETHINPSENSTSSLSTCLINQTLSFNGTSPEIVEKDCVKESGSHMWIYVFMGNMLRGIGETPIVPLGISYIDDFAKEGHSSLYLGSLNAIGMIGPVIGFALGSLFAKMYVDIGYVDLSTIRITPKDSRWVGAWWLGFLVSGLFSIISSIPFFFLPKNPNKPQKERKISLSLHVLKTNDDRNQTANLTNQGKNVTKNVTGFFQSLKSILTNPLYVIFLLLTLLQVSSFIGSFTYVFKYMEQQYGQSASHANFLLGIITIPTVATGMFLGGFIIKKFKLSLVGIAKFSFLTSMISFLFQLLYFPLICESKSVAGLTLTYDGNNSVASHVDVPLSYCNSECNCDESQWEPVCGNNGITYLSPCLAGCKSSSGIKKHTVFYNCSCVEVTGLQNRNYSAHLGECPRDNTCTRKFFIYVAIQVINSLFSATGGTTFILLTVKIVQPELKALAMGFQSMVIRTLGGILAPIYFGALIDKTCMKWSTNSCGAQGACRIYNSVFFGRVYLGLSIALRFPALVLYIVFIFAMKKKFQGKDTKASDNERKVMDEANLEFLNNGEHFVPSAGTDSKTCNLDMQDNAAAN
Description: as §1, §2, §3, §4, §5, §6, §7

[5] = target: T4, hOATP1B1 (Homo sapiens, UniProt Q9Y6L6); assay: Substrates uptake assay, HEK293A-OATP1B1 cells (3H-ES); format: in vitro ADME; conditions: inhibitor 60 μM
T4 sequence (Q9Y6L6 1-691): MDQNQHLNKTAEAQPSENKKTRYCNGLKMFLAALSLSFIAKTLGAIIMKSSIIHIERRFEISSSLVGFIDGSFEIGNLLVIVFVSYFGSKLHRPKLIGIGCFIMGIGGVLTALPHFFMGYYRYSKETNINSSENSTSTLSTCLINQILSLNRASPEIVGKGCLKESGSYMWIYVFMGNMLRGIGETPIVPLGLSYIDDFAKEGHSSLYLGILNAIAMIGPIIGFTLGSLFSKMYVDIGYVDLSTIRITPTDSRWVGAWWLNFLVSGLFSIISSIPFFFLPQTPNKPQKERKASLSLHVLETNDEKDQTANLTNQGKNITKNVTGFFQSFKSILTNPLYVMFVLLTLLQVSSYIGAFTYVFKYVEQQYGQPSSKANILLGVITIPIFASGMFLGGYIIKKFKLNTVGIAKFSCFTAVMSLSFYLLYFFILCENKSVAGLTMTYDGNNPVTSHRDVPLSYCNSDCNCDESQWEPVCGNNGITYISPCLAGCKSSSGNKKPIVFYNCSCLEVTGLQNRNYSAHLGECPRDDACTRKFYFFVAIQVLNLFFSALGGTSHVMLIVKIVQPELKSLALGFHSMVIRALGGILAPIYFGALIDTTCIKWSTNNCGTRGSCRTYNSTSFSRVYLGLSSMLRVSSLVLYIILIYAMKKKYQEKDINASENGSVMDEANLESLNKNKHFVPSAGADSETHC

DPM (14C-TEA uptake by OCT2) [1]: 417.3±44.8 DPM
Structure (SMILES): CN/C(=N/CCSCc1nc[nH]c1C)NC#N [Cimetidine, reference compound]

Structure (SMILES): CC(C)=CCC[C@](C)(O[C@@H]1O[C@H](CO[C@@H]2O[C@H](CO)[C@@H](O)[C@H](O)[C@H]2O)[C@@H](O)[C@H](O)[C@H]1O)[C@H]1CC[C@]2(C)[C@@H]1[C@H](O)C[C@@H]1[C@@]3(C)CC[C@H](O[C@@H]4O[C@H](CO)[C@@H](O)[C@H](O)[C@H]4O[C@@H]4O[C@H](CO)[C@@H](O)[C@H](O)[C@H]4O)C(C)(C)[C@@H]3CC[C@]12C [Ginsenoside Rb1]
IC50 [2]: 2.4 µM

DPM (3H-ES uptake by OAT3) [3]: 1709.3±343.6 DPM
Structure (SMILES): CCCN(CCC)S(=O)(=O)c1ccc(C(=O)O)cc1 [Probenecid, reference compound]

DPM (3H-EG uptake by OATP1B3) [4]: 769.0±126.5 DPM | DPM (3H-ES uptake by OATP1B1) [5]: 2798.7±891.8 DPM
Structure (SMILES): CO[C@H]1/C=C/O[C@@]2(C)Oc3c(C)c(O)c4c(O)c(c(/C=N/N5CCN(C)CC5)c(O)c4c3C2=O)NC(=O)/C(C)=C\C=C\[C@H](C)[C@H](O)[C@@H](C)[C@@H](O)[C@@H](C)[C@H](OC(C)=O)[C@@H]1C [Rifampicin, reference compound]
